Laboratory results published in patent US9850283B2, “Macrocyclic inhibitors of the PD-1/PD-L1 and CD80(B7-1)/PD-L1 protein/protein interactions” (BRISTOL-MYERS SQUIBB COMPANY, priority 2013, dated 2017).
Positions of bridges follow the written chain, without caps; N, C: chain ends. Non-standard residues stand in square brackets, D forms with d. Residues, ends and D or L forms follow the SMILES beside them. Ala(indol-4-yl) = N[C@@H](Cc1cccc2[nH]ccc12)C(=O)O; Phe(3,4-(OMe)2) = COc1ccc(C[C@H](N)C(=O)O)cc1OC; Phe(3,4-Cl2) = N[C@@H](Cc1ccc(Cl)c(Cl)c1)C(=O)O; Phe(4-CF3) = N[C@@H](Cc1ccc(C(F)(F)F)cc1)C(=O)O; Ala(4-thiazolyl) = N[C@@H](Cc1cscn1)C(=O)O; Phe(3-OMe) = COc1cccc(C[C@H](N)C(=O)O)c1; Phe(4-Cl) = N[C@@H](Cc1ccc(Cl)cc1)C(=O)O; Ala(2-furyl) = N[C@@H](Cc1ccco1)C(=O)O; Phe(2-Cl) = N[C@@H](Cc1ccccc1Cl)C(=O)O; Phe(4-Me) = Cc1ccc(C[C@H](N)C(=O)O)cc1; NMeF = CN[C@@H](Cc1ccccc1)C(=O)O; NMeNle = CCCC[C@H](NC)C(=O)O; Sar = CNCC(=O)O

How the values were obtained:
[1] = target: T1, Human PD-L1/PD-1 (Homo sapiens, UniProt Q9NZQ7); assay: HTRF PD-1-Ig/PD-L1-His binding assay (human PD-L1); conditions: cluster symbol; read-out: HTRF IC50 cluster
T1 construct: made in house; host or cells: HEK293T
T1 sequence (Q9NZQ7 with tags, fused parts or gaps): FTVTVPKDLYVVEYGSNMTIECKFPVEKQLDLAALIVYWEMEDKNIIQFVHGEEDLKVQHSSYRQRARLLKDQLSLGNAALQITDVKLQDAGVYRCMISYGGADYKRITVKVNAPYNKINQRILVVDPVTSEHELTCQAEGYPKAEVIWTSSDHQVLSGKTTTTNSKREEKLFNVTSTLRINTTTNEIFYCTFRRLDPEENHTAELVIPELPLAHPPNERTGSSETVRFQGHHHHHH
Procedure, shortened: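 Steps: truncated PD-1-Ig and PD-L1-His fusions are incubated in dPBS containing 0.1% (w/v) BSA and 0.05% (v/v) Tween-20. Detection antibodies are then added (Eu cryptate anti-Ig at 1 nM final, APC anti-His at 20 nM final), and time-resolved FRET is measured.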

[2] = target: T2, LK35.2-hPD-L1 cells / PE-labeled PD-1-Ig (Homo sapiens, UniProt Q9NZQ7); assay: LK35.2-hPD-L1 cell binding high-content screening assay; assay type: cell-based; conditions: cluster symbol; cell line of CBA not given (LK35.2-hPD-L1 or 293T-hPD-L1); read-out: CBA IC50 cluster
T2 construct: expressed in transfected cells; host or cells: LK35.2 mouse B cell line
T2 sequence (Q9NZQ7 19-290): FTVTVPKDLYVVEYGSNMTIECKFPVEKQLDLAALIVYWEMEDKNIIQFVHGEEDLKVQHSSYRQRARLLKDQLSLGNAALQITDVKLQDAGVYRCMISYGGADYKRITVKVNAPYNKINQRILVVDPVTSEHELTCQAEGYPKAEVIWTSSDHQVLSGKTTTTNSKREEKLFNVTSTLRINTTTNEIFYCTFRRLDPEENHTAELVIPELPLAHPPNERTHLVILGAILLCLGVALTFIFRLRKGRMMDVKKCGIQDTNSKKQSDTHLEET
Procedure, shortened: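 Mouse LK35.2 B cells stably over-expressing human PD-L1, cultured overnight, treated with compound plus PE-labeled human PD-1-Ig (1 nM final) in RPMI/10% FCS for 1 h at 37 °C. After washing, bound fluorescence quantified by high-content imaging.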

Row | IC50 [1] | IC50 [2] | Compound
1 | > 0.0305 µM | 0.00478 to 0.0729 µM | CCCC[C@H]1C(=O)N(C)CC(=O)N[C@@H](CC(=O)O)C(=O)N[C@@H](C(C)C)C(=O)N(C)[C@@H](Cc2ccccc2)C(=O)N[C@@H](Cc2ccc(O)cc2)C(=O)N(C)CC(=O)N[C@@H](Cc2c[nH]c3ccccc23)C(=O)N[C@@H](Cc2ccc(O)cc2)C(=O)N[C@@H](Cc2ccc(Cl)cc2)C(=O)N[C@H](C(=O)NCC(N)=O)CSCC(=O)N[C@@H](Cc2ccccc2)C(=O)N(C)[C@@H](Cc2ccccc2)C(=O)N1C [Example 3098] ({CH2CO}-F[NMeF][NMeNle][Sar]DV[NMeF]Y[Sar]WY[Phe(4-Cl)]CG-NH2; thioether N-13)
2 | > 0.0305 µM | > 0.0743 µM | CCCC[C@H]1C(=O)N(C)CC(=O)N[C@@H](CC(=O)O)C(=O)N[C@@H](C(C)C)C(=O)N(C)[C@@H](Cc2ccccc2)C(=O)N[C@@H](Cc2ccc(O)cc2)C(=O)N(C)CC(=O)N[C@@H](Cc2c[nH]c3ccccc23)C(=O)N[C@@H](Cc2ccc(Cl)cc2)C(=O)N[C@@H](CC(C)C)C(=O)N[C@H](C(=O)NCC(N)=O)CSCC(=O)N[C@@H](Cc2ccccc2)C(=O)N(C)[C@@H](Cc2ccccc2)C(=O)N1C [Example 3099] ({CH2CO}-F[NMeF][NMeNle][Sar]DV[NMeF]Y[Sar]W[Phe(4-Cl)]LCG-NH2; thioether N-13)
3 | > 0.0305 µM | > 0.0743 µM | CCCC[C@H]1C(=O)N(C)CC(=O)N[C@@H](CC(=O)O)C(=O)N[C@@H](C(C)C)C(=O)N(C)[C@@H](Cc2ccccc2)C(=O)N[C@@H](Cc2ccc(O)cc2)C(=O)N(C)CC(=O)N[C@@H](Cc2c[nH]c3ccccc23)C(=O)N[C@@H](Cc2ccc(Cl)c(Cl)c2)C(=O)N[C@@H](CC(C)C)C(=O)N[C@H](C(=O)NCC(N)=O)CSCC(=O)N[C@@H](Cc2ccccc2)C(=O)N(C)[C@@H](Cc2ccccc2)C(=O)N1C [Example 3100] ({CH2CO}-F[NMeF][NMeNle][Sar]DV[NMeF]Y[Sar]W[Phe(3,4-Cl2)]LCG-NH2; thioether N-13)
4 | > 0.0305 µM | > 0.0743 µM | CCCC[C@H]1C(=O)N(C)CC(=O)N[C@@H](CC(=O)O)C(=O)N[C@@H](C(C)C)C(=O)N(C)[C@@H](Cc2ccccc2)C(=O)N[C@@H](Cc2ccc(O)cc2)C(=O)N(C)CC(=O)N[C@@H](Cc2c[nH]c3ccccc23)C(=O)N[C@@H](Cc2ccc(O)cc2)C(=O)N[C@@H](CC(C)C)C(=O)N[C@H](C(=O)NCC(N)=O)CSCC(=O)N[C@@H](Cc2ccco2)C(=O)N(C)[C@@H](Cc2ccccc2)C(=O)N1C [Example 3101] ({CH2CO}-[Ala(2-furyl)][NMeF][NMeNle][Sar]DV[NMeF]Y[Sar]WYLCG-NH2; thioether N-13)
5 | > 0.0305 µM | > 0.0743 µM | CCCC[C@H]1C(=O)N(C)CC(=O)N[C@@H](CC(=O)O)C(=O)N[C@@H](C(C)C)C(=O)N(C)[C@@H](Cc2ccccc2)C(=O)N[C@@H](Cc2ccc(O)cc2)C(=O)N(C)CC(=O)N[C@@H](Cc2c[nH]c3ccccc23)C(=O)N[C@@H](Cc2ccc(O)cc2)C(=O)N[C@@H](CC(C)C)C(=O)N[C@H](C(=O)NCC(N)=O)CSCC(=O)N[C@@H](Cc2ccc(OC)c(OC)c2)C(=O)N(C)[C@@H](Cc2ccccc2)C(=O)N1C [Example 3102] ({CH2CO}-[Phe(3,4-(OMe)2)][NMeF][NMeNle][Sar]DV[NMeF]Y[Sar]WYLCG-NH2; thioether N-13)
6 | > 0.0305 µM | > 0.0743 µM | CCCC[C@H]1C(=O)N(C)CC(=O)N[C@@H](CC(=O)O)C(=O)N[C@@H](C(C)C)C(=O)N(C)[C@@H](Cc2ccccc2)C(=O)N[C@@H](Cc2ccc(O)cc2)C(=O)N(C)CC(=O)N[C@@H](Cc2c[nH]c3ccccc23)C(=O)N[C@@H](Cc2ccc(O)cc2)C(=O)N[C@@H](CC(C)C)C(=O)N[C@H](C(=O)NCC(N)=O)CSCC(=O)N[C@@H](Cc2cccc3[nH]ccc23)C(=O)N(C)[C@@H](Cc2ccccc2)C(=O)N1C [Example 3103] ({CH2CO}-[Ala(indol-4-yl)][NMeF][NMeNle][Sar]DV[NMeF]Y[Sar]WYLCG-NH2; thioether N-13)
7 | > 0.0305 µM | > 0.0743 µM | CCCC[C@H]1C(=O)N(C)CC(=O)N[C@@H](CC(=O)O)C(=O)N[C@@H](C(C)C)C(=O)N(C)[C@@H](Cc2ccccc2)C(=O)N[C@@H](Cc2ccc(O)cc2)C(=O)N(C)CC(=O)N[C@@H](Cc2c[nH]c3ccccc23)C(=O)N[C@@H](Cc2ccc(O)cc2)C(=O)N[C@@H](CC(C)C)C(=O)N[C@H](C(=O)NCC(N)=O)CSCC(=O)N[C@@H](Cc2ccccc2Cl)C(=O)N(C)[C@@H](Cc2ccccc2)C(=O)N1C [Example 3104] ({CH2CO}-[Phe(2-Cl)][NMeF][NMeNle][Sar]DV[NMeF]Y[Sar]WYLCG-NH2; thioether N-13)

Further lines, the compound ahead of its results:

Row | Compound | IC50 [1] | IC50 [2]
8 | CCCC[C@H]1C(=O)N(C)CC(=O)N[C@@H](CC(=O)O)C(=O)N[C@@H](C(C)C)C(=O)N(C)[C@@H](Cc2ccccc2)C(=O)N[C@@H](Cc2ccc(O)cc2)C(=O)N(C)CC(=O)N[C@@H](Cc2c[nH]c3ccccc23)C(=O)N[C@@H](Cc2ccc(O)cc2)C(=O)N[C@@H](CC(C)C)C(=O)N[C@H](C(=O)NCC(N)=O)CSCC(=O)N[C@@H](Cc2cnc[nH]2)C(=O)N(C)[C@@H](Cc2ccccc2)C(=O)N1C [Example 3091] (HELM PEPTIDE1{[O=C(C[*:3])[*:2]].H.[meF].[CCCC[C@@H](C(=O)[*:2])N(C)[*:1]].[Sar].D.V.[meF].Y.[Sar].W.Y.L.C.G.[am]}$PEPTIDE1,PEPTIDE1,1:R3-14:R3$$$V2.0) | > 0.0305 µM | > 0.0743 µM
9 | CCCC[C@H]1C(=O)N(C)CC(=O)N[C@@H](CC(=O)O)C(=O)N[C@@H](C(C)C)C(=O)N(C)[C@@H](Cc2ccccc2)C(=O)N[C@@H](Cc2ccc(O)cc2)C(=O)N(C)CC(=O)N[C@@H](Cc2c[nH]c3ccccc23)C(=O)N[C@@H](Cc2ccc(O)cc2)C(=O)N[C@@H](CC(C)C)C(=O)N[C@H](C(=O)NCC(N)=O)CSCC(=O)N[C@@H](Cc2cscn2)C(=O)N(C)[C@@H](Cc2ccccc2)C(=O)N1C [Example 3092] ({CH2CO}-[Ala(4-thiazolyl)][NMeF][NMeNle][Sar]DV[NMeF]Y[Sar]WYLCG-NH2; thioether N-13) | > 0.0305 µM | > 0.0743 µM
10 | CCCC[C@H]1C(=O)N(C)CC(=O)N[C@@H](CC(=O)O)C(=O)N[C@@H](C(C)C)C(=O)N(C)[C@@H](Cc2ccccc2)C(=O)N[C@@H](Cc2ccc(O)cc2)C(=O)N(C)CC(=O)N[C@@H](Cc2c[nH]c3ccccc23)C(=O)N[C@@H](Cc2ccc(O)cc2)C(=O)N[C@@H](CC(C)C)C(=O)N[C@H](C(=O)NCC(N)=O)CSCC(=O)N[C@@H](Cc2ccc(C(F)(F)F)cc2)C(=O)N(C)[C@@H](Cc2ccccc2)C(=O)N1C [Example 3093] ({CH2CO}-[Phe(4-CF3)][NMeF][NMeNle][Sar]DV[NMeF]Y[Sar]WYLCG-NH2; thioether N-13) | > 0.0305 µM | 0.00478 to 0.0729 µM
11 | CCCC[C@H]1C(=O)N(C)CC(=O)N[C@@H](CC(=O)O)C(=O)N[C@@H](C(C)C)C(=O)N(C)[C@@H](Cc2ccccc2)C(=O)N[C@@H](Cc2ccc(O)cc2)C(=O)N(C)CC(=O)N[C@@H](Cc2c[nH]c3ccccc23)C(=O)N[C@@H](Cc2ccc(O)cc2)C(=O)N[C@@H](CC(C)C)C(=O)N[C@H](C(=O)NCC(N)=O)CSCC(=O)N[C@@H](Cc2ccc(C)cc2)C(=O)N(C)[C@@H](Cc2ccccc2)C(=O)N1C [Example 3094] ({CH2CO}-[Phe(4-Me)][NMeF][NMeNle][Sar]DV[NMeF]Y[Sar]WYLCG-NH2; thioether N-13) | 0.00676 to 0.0303 µM | 0.00478 to 0.0729 µM
12 | CCCC[C@H]1C(=O)N(C)CC(=O)N[C@@H](CC(=O)O)C(=O)N[C@@H](C(C)C)C(=O)N(C)[C@@H](Cc2ccccc2)C(=O)N[C@@H](Cc2ccc(O)cc2)C(=O)N(C)CC(=O)N[C@@H](Cc2c[nH]c3ccccc23)C(=O)N[C@@H](Cc2ccc(O)cc2)C(=O)N[C@@H](CC(C)C)C(=O)N[C@H](C(=O)NCC(N)=O)CSCC(=O)N[C@@H](Cc2cccc(OC)c2)C(=O)N(C)[C@@H](Cc2ccccc2)C(=O)N1C [Example 3095] ({CH2CO}-[Phe(3-OMe)][NMeF][NMeNle][Sar]DV[NMeF]Y[Sar]WYLCG-NH2; thioether N-13) | 0.00676 to 0.0303 µM | 0.00478 to 0.0729 µM
13 | CCCC[C@H]1C(=O)N(C)CC(=O)N[C@@H](CC(=O)O)C(=O)N[C@@H](C(C)C)C(=O)N(C)[C@@H](Cc2ccccc2)C(=O)N[C@@H](Cc2ccc(O)cc2)C(=O)N(C)CC(=O)N[C@@H](Cc2c[nH]c3ccccc23)C(=O)N[C@@H](Cc2ccc(O)cc2)C(=O)N[C@@H](CC2CCCCC2)C(=O)N[C@H](C(=O)NCC(N)=O)CSCC(=O)N[C@@H](Cc2ccccc2)C(=O)N(C)[C@@H](Cc2ccccc2)C(=O)N1C [Example 3096] (HELM PEPTIDE1{[O=C(C[*:3])[*:2]].F.[meF].[CCCC[C@@H](C(=O)[*:2])N(C)[*:1]].[Sar].D.V.[meF].Y.[Sar].W.Y.[Cha].C.G.[am]}$PEPTIDE1,PEPTIDE1,1:R3-14:R3$$$V2.0) | 0.00676 to 0.0303 µM | 0.00478 to 0.0729 µM
14 | CCCC[C@@H]1NC(=O)[C@H](Cc2ccc(O)cc2)NC(=O)[C@H](Cc2c[nH]c3ccccc23)NC(=O)CN(C)C(=O)[C@H](Cc2ccc(O)cc2)NC(=O)[C@H](Cc2ccccc2)N(C)C(=O)[C@H](C(C)C)NC(=O)[C@H](CC(=O)O)NC(=O)CN(C)C(=O)[C@H](CCCC)N(C)C(=O)[C@H](Cc2ccccc2)N(C)C(=O)[C@H](Cc2ccccc2)NC(=O)CSC[C@@H](C(=O)NCC(N)=O)NC1=O [Example 3097] (HELM PEPTIDE1{[O=C(C[*:3])[*:2]].F.[meF].[CCCC[C@@H](C(=O)[*:2])N(C)[*:1]].[Sar].D.V.[meF].Y.[Sar].W.Y.[Nle].C.G.[am]}$PEPTIDE1,PEPTIDE1,1:R3-14:R3$$$V2.0) | 0.00676 to 0.0303 µM | 0.00478 to 0.0729 µM
